Test results: US7402696B2, “Benzene compounds” (Ajinomoto Co., Inc., priority 2004, dated 2008)

Target: T1, ACC (acetyl CoA carboxylase) purified from liver of male SD rat (Rattus norvegicus, UniProt P11497)
T1 construct: applied to a monomeric avidin sepharose column, and washed with buffer B. The ACC was eluted with buffer B containing 2 mM d-biotin; from tissue; host or cells: liver of male SD rat
Assay: Measurement of ACC inhibition activity ([14C]-NaHCO3 incorporation)
Type: biochemical
Details: ACC inhibition activity rate at 1 μM; Table 2-III, Mode 3 acetylene/oxadiazole/thiazole compounds (numbers = x-III); read-out: ACC Inhibition (%)
Method: A male SD rat was deprived of food for two days and then fed a high-sucrose diet (component) for two days. While anesthetized with ether, the descending vena cava was cut upon, the animal was bled, and the liver was rapidly recovered. In an ice-cooled buffer solution A (225 mM mannitol, 75 mM sucrose, 10 mM Tris-HCl (pH 7.5), 0.05 mM EDTA, 5 mM potassium citrate, 2.5 mM MgCl2, 10 mg/L pepstatin A, 10 mg/L leupeptin, 1 mM PMSF), the liver was homogenized with a polytone homogenizer. A quantity of buffer A nine times the weight of the liver was added, the mixture was centrifuged for 10 minutes at 1,000 g, the supernatant was recovered, and the supernatant was centrifuged for another 10 minutes at 17,000 g.
Ammonium sulfate was added to 35 percent saturation to the obtained supernatant. The mixture was stirred for 45 minutes and then centrifuged for 10 minutes at 17,000 g. Buffer solution B (100 mM Tris-HCl (pH 7.5), 500 mM NaCl, 1 mM EDTA, 0.1 mM DTT, 10 percent glycerol, 10 mg/L pepstatin A, 10 mg/L leupeptin, 0.5 mM PMSF) was added to the obtained precipitate and dissolved. The solution was then centrifuged for 20 minutes at 40,000 g. The supernatant was dialyzed overnight against buffer C (100 mM Tris-HCl (pH 7.5), 500 mM NaCl, 1 mM EDTA, 0.1 mM DTT, 5 percent glycerol).
The dialyzed supernatant was passed through a […], applied to a monomeric avidin sepharose column, and washed with buffer B. The ACC was eluted with buffer B containing 2 mM d-biotin.
(2 Measurement of ACC Inhibition Activity)
The compounds synthesized in the above-described embodiments were dissolved in DMSO and charged to glass vials. 250 μL of ACC-containing reaction solution (40 mM Tris-HCl (pH 7.5), 40 mM MgCl2, 40 mM sodium citrate, and 2 mM DTT) was added. The mixture was heated for 30 minutes at 37° C. in a thermostatic chamber and then cooled with ice. To reaction solution 1 was added 250 μL of reaction solution 2 containing [14C]—NaHCO3 (40 mM Tris-HCl (pH 7.5), 2 mM DTT, 8 mM ATP, 0.5 mM acetyl CoA) and the mixture was heated for 10 minutes at 37° C. 100 μL of 1N HCl was added to stop the reaction. Water in the reaction solution was removed with a centrifugal evaporator, a scintillator was added, the solid component was dissolved, and the 14C radioactivity was measured with a liquid scintillation counter. The ACC inhibition activity of each compound was calculated from the following equation and converted to the ACC inhibition activity rate (%) at 1 μM.
ACC inhibition rate (%)=(1−(a−c)/(b−c))×100 a. Radioactivity when test drug added b: Radioactivity when test drug not added c: Blank* *Reaction solution 1 to which 100 μL of 1N HCl was added before mixing reaction solution 1 and reaction solution 2

Row | inhibition at 1 µM | Structure (SMILES)
1 | 62% | O=C(O)c1ccccc1-c1nc(-c2ccc(-c3nc(-c4cc(C(F)(F)F)cc(C(F)(F)F)c4)cs3)cc2)cs1 [compound 1]
2 | 60% | O=C(O)c1ccccc1S(=O)(=O)Nc1ccc(C#Cc2cccc(C(F)(F)F)c2)cc1 [compound 9]
3 | 61% | O=C(O)c1ccccc1C(=O)Nc1ccc(C#Cc2cccc(C(F)(F)F)c2)cc1 [compound 10]

Same assay, conditions: ACC inhibition activity rate at 1 μM; Table 3-I, Mode 1 quinoline compounds (numbers = x-I); read-out: ACC Inhibition (%)

Row | inhibition at 1 µM | Structure (SMILES)
4 | 53% | O=C(Nc1ccccc1C(=O)O)c1ccc2nc(-c3cc(C(F)(F)F)cc(C(F)(F)F)c3)ccc2c1 [compound 3]
5 | 78% | CCCCS(=O)(=O)NC(=O)c1ccccc1NC(=O)c1ccc2nc(-c3cc(C(F)(F)F)cc(C(F)(F)F)c3)ccc2c1 [compound 4]
6 | 72% | CCCCCC(=O)NS(=O)(=O)c1ccccc1NC(=O)c1ccc2nc(-c3cc(C(F)(F)F)cc(C(F)(F)F)c3)ccc2c1 [compound 7]

Same assay, conditions: ACC inhibition activity rate at 1 μM; Table 3-II, Mode 2 benzimidazole compounds (numbers = x-II); read-out: ACC Inhibition (%)

Row | inhibition at 1 µM | Structure (SMILES)
7 | 50% | CCCCCC(=O)NS(=O)(=O)c1ccccc1NC(=O)c1ccc2c(c1)nc(-c1cc(C(F)(F)F)cc(C(F)(F)F)c1)n2CCC(C)C [compound 1]
8 | 92% | CCCCCC(=O)NS(=O)(=O)c1ccccc1NC(=O)c1ccc2c(c1)nc(-c1cc(C(F)(F)F)cc(C(F)(F)F)c1)n2-c1ccc(C(F)(F)F)cc1 [compound 2]
9 | 54% | CCCCCC(=O)NS(=O)(=O)c1ccccc1NC(=O)c1ccc2nc(-c3cccc(C(F)(F)F)c3)n(-c3ccccc3)c2c1 [compound 4]
10 | 89% | CC(C)(C)c1ccc(C(=O)NS(=O)(=O)c2ccccc2NC(=O)c2ccc3nc(-c4cccc(C(F)(F)F)c4)n(-c4ccccc4)c3c2)cc1 [compound 5]
11 | 57% | O=C(O)c1cccc(-c2noc(-c3ccc4c(c3)nc(-c3ccccc3)n4-c3ccc(C(F)(F)F)cc3)n2)c1 [compound 8]

Same assay, conditions: ACC inhibition activity rate at 1 μM; Table 4-A, further compounds of Modes 2 and 3; read-out: ACC Inhibition (%)

Row | inhibition at 1 µM | Structure (SMILES)
12 | 72% | CC(C)CCn1c(-c2ccccc2)nc2cc(-c3nc(-c4cccc(C(=O)NS(=O)(=O)c5ccccc5)c4)no3)ccc21 [Compound 9-II]
13 | 96% | Nc1ccc(S(=O)(=O)NC(=O)c2cccc(-c3nc(-c4ccc(-c5csc(-c6ccccc6)n5)cc4)no3)c2)cc1 [Compound 132-III]
14 | 98% | O=C(NS(=O)(=O)c1ccc(-c2nc(-c3ccc(-c4csc(-c5ccccc5)n4)cc3)no2)cc1)c1ccccc1 [Compound 135-III]
15 | 94% | O=C(NS(=O)(=O)c1cccc(-c2nc(-c3ccc(-c4csc(-c5ccccc5)n4)cc3)no2)c1)c1ccccc1 [Compound 136-III]
16 | 96% | Nc1ccccc1S(=O)(=O)NC(=O)c1cccc(-c2nc(-c3ccc(-c4csc(-c5ccccc5)n4)cc3)no2)c1 [Compound 137-III]
17 | 100% | O=C(NS(=O)(=O)c1cccc(-c2nc(-c3ccc(-c4csc(-c5ccccc5)n4)cc3)no2)c1)c1ccc(-n2ccnc2)cc1 [Compound 138-III]
18 | 96% | Cn1cnc(S(=O)(=O)NC(=O)c2cccc(-c3nc(-c4ccc(-c5csc(-c6ccccc6)n5)cc4)no3)c2)c1 [Compound 139-III]
19 | 92% | COC(=O)c1ccc(S(=O)(=O)NC(=O)c2cccc(-c3nc(-c4ccc(-c5csc(-c6ccccc6)n5)cc4)no3)c2)cc1 [Compound 140-III]
20 | 100% | Cc1ccccc1S(=O)(=O)NC(=O)c1cccc(-c2nc(-c3ccc(-c4csc(-c5ccccc5)n4)cc3)no2)c1 [Compound 141-III]
21 | 100% | O=C(/C=C/c1ccccc1)NS(=O)(=O)c1cccc(-c2nc(-c3ccc(-c4csc(-c5ccccc5)n4)cc3)no2)c1 [Compound 142-III]
22 | 83% | O=C(NS(=O)(=O)c1cccc(-c2nc(-c3ccc(-c4csc(-c5ccccc5)n4)cc3)no2)c1)c1cccs1 [Compound 143-III]
23 | 97% | O=C(O)c1ccc(S(=O)(=O)NC(=O)c2cccc(-c3nc(-c4ccc(-c5csc(-c6ccccc6)n5)cc4)no3)c2)cc1 [Compound 144-III]
24 | 84% | O=C(NS(=O)(=O)c1cccc(-c2nc(-c3ccc(-c4csc(-c5ccccc5)n4)cc3)no2)c1)c1cccnc1 [Compound 145-III]
25 | 79% | COc1cccc(OC)c1C(=O)NS(=O)(=O)c1cccc(-c2nc(-c3ccc(-c4csc(-c5ccccc5)n4)cc3)no2)c1 [Compound 146-III]
26 | 65% | CCN(CC)c1ccc(-c2csc(-c3ccc(-c4csc(-c5cccc(S(=O)(=O)NC(=O)c6ccncc6)c5)n4)cc3)n2)cc1 [Compound 147-III]

Same assay, conditions: ACC inhibition activity rate at 1 μM; Table 4-IV, Mode 4 benzenediamine compounds (numbers = x-IV); read-out: ACC Inhibition (%)

Row | inhibition at 1 µM | Structure (SMILES)
27 | 99% | COC(=O)c1cccc(S(=O)(=O)NC(=O)c2cccc(-c3nc(-c4ccc(N(C)CCC(C)C)c(NCc5ccc(OCCO)cc5)c4)no3)c2)c1 [Compound 133-IV]
28 | 89% | CC(C)CCN(C)c1ccc(-c2noc(-c3cccc(C(=O)NS(=O)(=O)c4cccc(C(=O)O)c4)c3)n2)cc1NCc1ccc(OCCO)cc1 [Compound 134-IV]
29 | 79% | CC(C)CCN(C)c1ccc(-c2noc(-c3cccc(C(=O)NS(=O)(=O)c4cn(C)cn4)c3)n2)cc1NCc1ccc(OCCO)cc1 [Compound 137-IV]
30 | 63% | CC(C)CCN(C)c1ccc(C(=O)NC(CC(=O)NS(=O)(=O)c2ccc(C(=O)O)cc2)C2CCCCC2)cc1NCc1ccccc1 (centres unmarked) [Compound 138-IV]
31 | 100% | CC(C)CCN(C)c1ccc(-c2noc(-c3cccc(C(=O)NS(=O)(=O)c4cccc(C(=O)O)c4)c3)n2)cc1N(C)Cc1ccc(OCCO)cc1 [Compound 139-IV]
32 | 93% | CC(C)CCN(C)c1ccc(-c2noc(-c3cccc(C(=O)NS(=O)(=O)c4cn(C)cn4)c3)n2)cc1N(C)Cc1ccc(OCCO)cc1 [Compound 142-IV]
33 | 94% | CC(C)CCN(C)c1ccc(C(=O)N[C@H]2CCCC[C@H]2C(=O)NS(=O)(=O)c2ccccc2)cc1NCc1ccccc1 [Compound 144-IV]
34 | 57% | Cc1ccccc1S(=O)(=O)NC(=O)[C@@H]1CCCC[C@H]1NC(=O)c1ccc(N(C)CCC(C)C)c(NCc2ccccc2)c1 [Compound 145-IV]
35 | 72% | Cc1ccccc1S(=O)(=O)NC(=O)[C@@H]1CCCC[C@@H]1NC(=O)c1ccc(N(C)CCC(C)C)c(NCc2ccccc2)c1 [Compound 146-IV]
36 | 68% | CC(C)CCN(C)c1ccc(C(=O)NC(CC(=O)NS(=O)(=O)c2cn(C)cn2)C2CCCCC2)cc1NCc1ccccc1 (centres unmarked) [Compound 147-IV]
37 | 63% | CC(C)CCN(C)c1ccc(C(=O)NC(CC(=O)NS(=O)(=O)c2cn(C)cn2)C2CCCCC2)cc1N(C)Cc1ccccc1 (centres unmarked) [Compound 148-IV]
38 | 86% | Cc1ccccc1S(=O)(=O)NC(=O)CC(NC(=O)c1ccc(N(C)CCC(C)C)c(N(C)CCc2ccccc2)c1)C1CCCCC1 (centres unmarked) [Compound 153-IV]
39 | 69% | CN(c1ccc(C(=O)NC(CC(=O)NS(=O)(=O)c2ccccc2)C2CCCCC2)cc1NCCc1ccccc1)C1CC1 (centres unmarked) [Compound 157-IV]
40 | 65% | CN(c1ccc(C(=O)NC(CC(=O)NS(=O)(=O)c2ccccc2)C2CCCCC2)cc1NCCOCc1ccccc1)C1CC1 (centres unmarked) [Compound 158-IV]
41 | 71% | CC(C)CCN(C)c1ccc(C(=O)NC(CC(=O)NS(=O)(=O)c2cn(C)cn2)C2CCCCC2)cc1NCC1CCCCC1 (centres unmarked) [Compound 161-IV]
42 | 85% | CC(C)CCN(C)c1ccc(C(=O)NC(CC(=O)NS(=O)(=O)c2cn(C)cn2)C2CCCCC2)cc1NCCc1ccccc1 (centres unmarked) [Compound 162-IV]
43 | 50% | CCCCCC(=O)NS(=O)(=O)c1ccccc1NC(=O)c1ccc(Nc2c(F)c(F)c(C(F)(F)F)c(F)c2F)c([N+](=O)[O-])c1 [compound 8]

Same assay, conditions: read-out: ACC Inhibition (%)

Row | Structure (SMILES) | inhibition at 1 µM
44 | CCOP(=O)(/C=C/c1ccc(CNc2cc(-c3noc(-c4cccc(C(=O)NS(=O)(=O)c5ccccc5C)c4)n3)ccc2N(C)CCC(C)C)cc1)OCC [Compound 140-IV] | 100%
